Some targets named below: ABL1 (human) (UniProt P00519); CDK4 CCND1 (human) (UniProt P11802+P24385); CDKL1 (human) (UniProt Q00532); CSNK1A1 (human) (UniProt P48729); DCLK2 (human) (UniProt Q8N568); DSTYK (human) (UniProt Q6XUX3); DYRK2 (human) (UniProt Q92630); EPHB6 (human) (UniProt O15197); ERN1 (human) (UniProt O75460); HIPK3 (human) (UniProt Q9H422); IRAK4 (human) (UniProt Q9NWZ3); MAP2K5 (human) (UniProt Q13163); MAP3K13 (human) (UniProt O43283); MAP3K2 (human) (UniProt Q9Y2U5); MARK2 (human) (UniProt Q7KZI7); MAST1 (human) (UniProt Q9Y2H9); MTOR (human) (UniProt P42345); NEK3 (human) (UniProt P51956); NIM1 (human) (UniProt Q8IY84); OXSR1 (human) (UniProt O95747); PIK3C2G (human) (UniProt O75747); PIP4K2C (human) (UniProt Q8TBX8); PIP5K1C (human) (UniProt O60331); PRKCI (human) (UniProt P41743); PRPF4B (human) (UniProt Q13523); SGK3 (human) (UniProt Q96BR1); STK32A (human) (UniProt Q8WU08); STK38 (human) (UniProt Q15208); STK39 (human) (UniProt Q9UEW8); TAOK2 (human) (UniProt Q9UL54); TBK1 (human) (UniProt Q9UHD2); TRPM6 (human) (UniProt Q9BX84).

Holding throughout (test): KINOMEscan competition binding
Holding throughout (conditions): compound 10.0 µM

In experiment [1] the test system is ABL1 (human), P00519 [F317L].
Experiment [2] deals with ABL1 (human), P00519 [T315I].
In experiment [3] the test system is EGFR (human), P00533 [T790M].
Experiment [4] deals with MET (human), P08581 [M1250T].
Experiment [5] has as its system MET (human), P08581 [Y1235D].
Experiment [6] has as its system PIK3CA (human), P42336 [C420R].
In experiment [7] the test system is PIK3CA (human), P42336 [E542K].
Experiment [8] concerns PIK3CA (human), P42336 [H1047Y].
Experiment [9] relates to PIK3CA (human), P42336 [M1043I].
Experiment [10] concerns PIK3CA (human), P42336 [Q546K].

Chain of HIPK3 (human) (Q9H422 whole entry, looked up): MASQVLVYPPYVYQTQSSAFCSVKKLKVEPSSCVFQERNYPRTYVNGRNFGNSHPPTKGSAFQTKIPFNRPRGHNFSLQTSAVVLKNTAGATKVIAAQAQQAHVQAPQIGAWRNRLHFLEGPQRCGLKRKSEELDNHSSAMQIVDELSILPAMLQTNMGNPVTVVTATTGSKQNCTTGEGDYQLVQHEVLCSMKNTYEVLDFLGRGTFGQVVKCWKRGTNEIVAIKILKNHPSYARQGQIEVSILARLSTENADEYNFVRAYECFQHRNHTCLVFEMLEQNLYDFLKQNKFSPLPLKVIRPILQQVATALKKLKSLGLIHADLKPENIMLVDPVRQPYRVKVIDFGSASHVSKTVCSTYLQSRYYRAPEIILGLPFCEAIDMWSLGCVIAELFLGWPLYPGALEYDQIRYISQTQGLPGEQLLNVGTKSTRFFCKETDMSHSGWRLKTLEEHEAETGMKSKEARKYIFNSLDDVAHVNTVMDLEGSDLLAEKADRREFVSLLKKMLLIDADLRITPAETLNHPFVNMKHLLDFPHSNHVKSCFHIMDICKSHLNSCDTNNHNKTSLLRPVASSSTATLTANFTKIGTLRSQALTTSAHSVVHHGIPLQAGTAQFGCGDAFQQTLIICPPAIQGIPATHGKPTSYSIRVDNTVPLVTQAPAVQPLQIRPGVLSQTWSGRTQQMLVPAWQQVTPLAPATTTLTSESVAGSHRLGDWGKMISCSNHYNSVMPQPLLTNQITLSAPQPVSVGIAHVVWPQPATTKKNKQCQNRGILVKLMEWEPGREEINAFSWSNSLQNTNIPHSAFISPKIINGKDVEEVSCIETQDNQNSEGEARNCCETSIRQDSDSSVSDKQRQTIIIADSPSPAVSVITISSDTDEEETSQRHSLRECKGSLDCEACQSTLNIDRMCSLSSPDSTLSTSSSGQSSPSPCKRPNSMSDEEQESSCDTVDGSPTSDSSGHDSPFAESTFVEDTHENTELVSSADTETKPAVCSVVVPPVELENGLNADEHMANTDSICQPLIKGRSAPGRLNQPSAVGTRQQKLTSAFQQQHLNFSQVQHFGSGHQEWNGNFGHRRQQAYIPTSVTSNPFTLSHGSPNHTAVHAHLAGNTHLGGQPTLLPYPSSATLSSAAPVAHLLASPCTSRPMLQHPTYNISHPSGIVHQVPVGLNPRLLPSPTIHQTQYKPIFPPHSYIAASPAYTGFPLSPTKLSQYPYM
Chain of STK38 (human) (Q15208 whole entry, looked up): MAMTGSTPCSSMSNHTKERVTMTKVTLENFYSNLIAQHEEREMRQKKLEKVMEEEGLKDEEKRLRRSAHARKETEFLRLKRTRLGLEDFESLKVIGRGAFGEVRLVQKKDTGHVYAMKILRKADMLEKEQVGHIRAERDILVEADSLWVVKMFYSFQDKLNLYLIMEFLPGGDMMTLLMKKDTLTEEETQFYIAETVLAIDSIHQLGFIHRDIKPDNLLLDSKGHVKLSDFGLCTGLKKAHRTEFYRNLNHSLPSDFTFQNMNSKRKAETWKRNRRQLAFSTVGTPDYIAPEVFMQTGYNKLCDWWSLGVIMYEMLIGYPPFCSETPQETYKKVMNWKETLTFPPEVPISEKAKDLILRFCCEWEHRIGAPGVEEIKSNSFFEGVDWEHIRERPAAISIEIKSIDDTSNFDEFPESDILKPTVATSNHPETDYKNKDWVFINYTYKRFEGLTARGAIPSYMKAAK
Chain of PIK3C2G (human) (O75747 whole entry, looked up): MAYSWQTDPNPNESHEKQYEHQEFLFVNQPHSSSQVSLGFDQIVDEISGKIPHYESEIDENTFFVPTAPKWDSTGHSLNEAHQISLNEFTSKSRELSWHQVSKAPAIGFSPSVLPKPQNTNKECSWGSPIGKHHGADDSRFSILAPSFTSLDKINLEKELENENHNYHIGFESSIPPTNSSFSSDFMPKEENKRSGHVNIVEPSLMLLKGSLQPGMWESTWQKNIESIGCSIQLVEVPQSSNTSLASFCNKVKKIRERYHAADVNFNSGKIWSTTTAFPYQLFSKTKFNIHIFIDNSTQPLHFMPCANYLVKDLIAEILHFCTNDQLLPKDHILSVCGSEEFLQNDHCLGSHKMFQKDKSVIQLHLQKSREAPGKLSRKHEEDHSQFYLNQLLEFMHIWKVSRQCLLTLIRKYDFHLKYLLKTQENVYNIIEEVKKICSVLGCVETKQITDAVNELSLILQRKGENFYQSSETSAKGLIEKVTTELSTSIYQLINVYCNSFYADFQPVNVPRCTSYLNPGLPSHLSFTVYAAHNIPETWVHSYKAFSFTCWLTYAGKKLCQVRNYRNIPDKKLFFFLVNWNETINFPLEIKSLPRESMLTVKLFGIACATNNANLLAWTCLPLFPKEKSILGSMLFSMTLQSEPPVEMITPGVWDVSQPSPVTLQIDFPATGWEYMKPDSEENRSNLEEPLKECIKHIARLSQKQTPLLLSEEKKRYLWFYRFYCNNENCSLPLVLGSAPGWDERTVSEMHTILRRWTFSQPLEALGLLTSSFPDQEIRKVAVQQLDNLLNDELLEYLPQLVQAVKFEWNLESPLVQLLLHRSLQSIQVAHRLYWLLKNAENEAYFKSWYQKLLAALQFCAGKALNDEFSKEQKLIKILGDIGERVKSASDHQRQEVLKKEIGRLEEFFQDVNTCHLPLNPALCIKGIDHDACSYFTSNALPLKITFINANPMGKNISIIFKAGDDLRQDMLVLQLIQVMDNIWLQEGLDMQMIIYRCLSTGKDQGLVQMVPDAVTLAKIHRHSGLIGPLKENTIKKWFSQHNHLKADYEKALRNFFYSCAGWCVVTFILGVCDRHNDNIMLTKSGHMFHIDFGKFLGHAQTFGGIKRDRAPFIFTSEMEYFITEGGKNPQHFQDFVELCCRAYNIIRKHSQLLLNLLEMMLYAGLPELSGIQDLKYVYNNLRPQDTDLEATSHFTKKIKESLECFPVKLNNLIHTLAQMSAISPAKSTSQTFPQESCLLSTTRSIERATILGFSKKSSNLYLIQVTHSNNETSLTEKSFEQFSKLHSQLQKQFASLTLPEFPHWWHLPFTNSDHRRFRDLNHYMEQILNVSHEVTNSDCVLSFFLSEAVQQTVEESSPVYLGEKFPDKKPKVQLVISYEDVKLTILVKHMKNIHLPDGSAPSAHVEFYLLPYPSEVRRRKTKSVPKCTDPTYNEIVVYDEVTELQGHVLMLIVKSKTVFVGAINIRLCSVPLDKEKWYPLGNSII
Chain of MAP3K13 (human) (O43283 whole entry, looked up): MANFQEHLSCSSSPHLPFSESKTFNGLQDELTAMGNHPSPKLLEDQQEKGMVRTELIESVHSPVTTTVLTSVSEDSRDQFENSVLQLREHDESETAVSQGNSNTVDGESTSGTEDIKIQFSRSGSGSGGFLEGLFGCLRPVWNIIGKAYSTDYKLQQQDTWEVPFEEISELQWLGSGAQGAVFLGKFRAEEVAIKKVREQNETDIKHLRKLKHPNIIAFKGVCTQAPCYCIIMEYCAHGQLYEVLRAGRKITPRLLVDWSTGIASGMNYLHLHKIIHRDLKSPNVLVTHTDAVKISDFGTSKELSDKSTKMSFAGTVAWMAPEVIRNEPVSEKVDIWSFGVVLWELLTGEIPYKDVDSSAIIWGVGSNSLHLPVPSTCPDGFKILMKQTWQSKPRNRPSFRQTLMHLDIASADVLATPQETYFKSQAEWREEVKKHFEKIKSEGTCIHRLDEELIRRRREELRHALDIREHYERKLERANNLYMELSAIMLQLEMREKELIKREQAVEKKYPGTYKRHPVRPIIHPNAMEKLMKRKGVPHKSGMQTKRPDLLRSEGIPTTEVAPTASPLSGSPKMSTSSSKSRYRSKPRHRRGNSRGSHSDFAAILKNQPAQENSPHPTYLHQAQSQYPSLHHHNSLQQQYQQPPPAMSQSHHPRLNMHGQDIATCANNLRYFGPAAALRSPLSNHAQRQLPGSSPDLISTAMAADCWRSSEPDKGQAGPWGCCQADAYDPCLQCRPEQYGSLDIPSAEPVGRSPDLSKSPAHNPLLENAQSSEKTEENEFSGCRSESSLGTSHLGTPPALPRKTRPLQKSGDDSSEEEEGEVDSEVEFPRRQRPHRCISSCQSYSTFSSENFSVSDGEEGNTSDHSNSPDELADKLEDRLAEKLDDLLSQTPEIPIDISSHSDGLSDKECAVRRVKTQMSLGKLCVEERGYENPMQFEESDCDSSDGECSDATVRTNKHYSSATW
Chain of MAP2K5 (human) (Q13163 whole entry, looked up): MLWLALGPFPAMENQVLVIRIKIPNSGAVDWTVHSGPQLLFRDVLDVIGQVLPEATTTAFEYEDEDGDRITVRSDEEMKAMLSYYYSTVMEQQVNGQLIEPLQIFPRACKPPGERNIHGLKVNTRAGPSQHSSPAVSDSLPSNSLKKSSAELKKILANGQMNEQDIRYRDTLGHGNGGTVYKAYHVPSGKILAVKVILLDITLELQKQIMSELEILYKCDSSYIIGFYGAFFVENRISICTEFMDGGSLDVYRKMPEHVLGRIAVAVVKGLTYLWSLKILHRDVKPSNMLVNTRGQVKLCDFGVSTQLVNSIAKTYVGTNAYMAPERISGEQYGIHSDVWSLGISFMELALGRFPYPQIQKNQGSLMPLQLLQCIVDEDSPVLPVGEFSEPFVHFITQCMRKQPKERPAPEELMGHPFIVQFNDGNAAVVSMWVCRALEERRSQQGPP
Chain of PIP4K2C (human) (Q8TBX8 whole entry, looked up): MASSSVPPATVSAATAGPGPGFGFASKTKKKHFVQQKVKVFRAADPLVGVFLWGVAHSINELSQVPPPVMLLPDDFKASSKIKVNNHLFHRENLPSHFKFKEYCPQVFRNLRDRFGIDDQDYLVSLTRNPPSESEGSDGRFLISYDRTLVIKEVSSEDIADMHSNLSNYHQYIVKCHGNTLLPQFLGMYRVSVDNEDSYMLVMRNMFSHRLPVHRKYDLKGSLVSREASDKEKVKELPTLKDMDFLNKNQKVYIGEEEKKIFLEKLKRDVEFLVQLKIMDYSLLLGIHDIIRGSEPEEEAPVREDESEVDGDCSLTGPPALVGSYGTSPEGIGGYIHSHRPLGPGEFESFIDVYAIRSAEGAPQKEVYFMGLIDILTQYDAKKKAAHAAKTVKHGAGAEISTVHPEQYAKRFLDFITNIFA

Take `CCN1CCN(Cc2ccc(NC(=O)c3ccc(C)c(Oc4ccnc5[nH]ccc45)c3)cc2C(F)(F)F)CC1`: the kinase still bound, per cent of control was 0.1% at ABL1 (human), 0.1% in [1] and 0% in experiment [2].

For `COc1cc(N2CCC(N3CCN(C)CC3)CC2)ccc1Nc1ncc(Cl)c(Nc2ccccc2S(=O)(=O)C(C)C)n1`, the values for the kinase still bound, per cent of control (at ABL1 (human); in [1]; in experiment [2]) were 7.3%, 0.7% and 0.1%, respectively.

With `CCOc1cc(N2CCC(N3CCCCC3)CC2)ccc1Nc1nc(Nc2ccccc2S(=O)(=O)C(C)C)c2cn[nH]c2n1`, the kinase still bound, per cent of control is 82% at CDK4 CCND1 (human); 100% on CDKL1 (human); 55% on CSNK1A1 (human); 19% at DCLK2 (human); 2.8% on DSTYK (human); 90% on DYRK2 (human). Moreover, the kinase still bound, per cent of control in experiment [3] is 0.25%; at EPHB6 (human) it was 71%; at ERN1 (human), 92%; on HIPK3 (human) it was 79%; at IRAK4 (human), 87%; at MAP2K5 (human) it was 55%. Further, the kinase still bound, per cent of control is 100% on MAP3K13 (human); 28% at MAP3K2 (human); 86% on MARK2 (human); 46% at MAST1 (human); 100% in experiment [4]; 100% in experiment [5]. In addition, the kinase still bound, per cent of control is 86% on MTOR (human); 76% at NEK3 (human); 100% on NIM1 (human); 0.05% at OXSR1 (human); 100% on PIK3C2G (human); 100% in experiment [6]. The kinase still bound, per cent of control amounted to 100% in [7]; 100% in [8]; 100% in experiment [9]; 100% in experiment [10]; 100% on PIP4K2C (human); 82% at PIP5K1C (human). The kinase still bound, per cent of control on PRKCI (human) was 100%; on PRPF4B (human) it was 100%; on SGK3 (human), 92%; at STK32A (human), 32%; on STK38 (human), 98%; on STK39 (human) it was 37%. The values for the kinase still bound, per cent of control at TAOK2 (human), on TBK1 (human) and at TRPM6 (human) were 66%, 100% and 100%, respectively.

`CCN1CCN(Cc2ccc(NC(=O)c3ccc(C)c(/C=C/c4cnc(Nc5cc(N6CCNCC6)nc(C)n5)cn4)c3)cc2C(F)(F)F)CC1`: the kinase still bound, per cent of control was found to be 100% on CDK4 CCND1 (human); 61% at CDKL1 (human); 14% on CSNK1A1 (human); 100% on DCLK2 (human); 69% at DSTYK (human); 74% on DYRK2 (human). Besides, the kinase still bound, per cent of control worked out at 9.4% in [3]; 1.6% on EPHB6 (human); 71% at ERN1 (human); 48% at HIPK3 (human); 77% at IRAK4 (human); 0.1% at MAP2K5 (human). The kinase still bound, per cent of control at MAP3K13 (human) is 6.6%; on MAP3K2 (human), 0.4%; at MARK2 (human) it was 100%; at MAST1 (human), 87%; in [4] it was 89%; in experiment [5], 93%. Besides, the kinase still bound, per cent of control worked out at 100% at MTOR (human); 59% on NEK3 (human); 100% at NIM1 (human); 76% on OXSR1 (human); 87% on PIK3C2G (human); 80% in experiment [6]. The kinase still bound, per cent of control in experiment [7] was found to be 94%; in experiment [8] it was 68%; in experiment [9], 73%; in [10], 100%; at PIP4K2C (human), 61%; at PIP5K1C (human) it was 65%. The kinase still bound, per cent of control worked out at 74% on PRKCI (human); 85% on PRPF4B (human); 80% at SGK3 (human); 100% at STK32A (human); 79% at STK38 (human); 100% at STK39 (human). For the same molecule, the kinase still bound, per cent of control on TAOK2 (human) was 5.7%; at TBK1 (human), 96%; at TRPM6 (human), 67%.

The values are drawn from the kinase profiling compilation of Christmann-Franck et al. (2016).
